What was measured:
[1] = tested on: vaginal epithelium (hornification); assay: Vaginal swab test of the castrated rat; format: in vivo; conditions: subcutaneous, 1 mg
Experimental: One example of compounds having possible antiestrogenic effects which are not included within the scope of this invention are those disclosed in U.S. Pat. No. 4,055,641 to Benson et al which are primarily anabolic androgens. For example, the compound preferred by Benson et al, 3,17-dioxoandrost-4-ene-19-al (Column 3, lines 67-68) was tested in the vaginal swab test of the castrated rat after subcutaneous application in a dosage of 1 mg. […] In addition, the compounds of Benson et al were tested on intact (not castrated) male animals or probands. These estrogenous substances acted on the prostate by removal of androgen, not by displacing estrogen as for the antiestrogens used in this invention. The difference between the antiestrogens acting through an antagonism to estrogen receptors, i.e., those used in this invention, and those which are primariy androgenic or gestogenic in activity with some simultaneous antiestrogenic effect is also discussed in Nishino, supra.

[2] = tested on: Estradiol-stimulated Uterus Weight of Infantile Mice; assay: Antiestrogenic effect on the estradiol-stimulated uterus weight of infantile mice (uterus growth test); format: in vivo; conditions: for Effect on uterus weight of the estradiol-stimulated uterus of infantile mice, in words: s.c., 0.3-300 μg/animal/day
Experimental: Daily for 3 days 0.03 μg of estradiol and measured dosages of the antiestrogen to be tested are simultaneously applied to castrated or infantile mice subcutaneously. The animals are killed on the fourth day, and the uteri are removed and weighed without contents (See Table 1). The same test is carried out on castrated or infantile rats using 0.1 μg of estradiol.
Antiestrogenic Effect of Ru-16117 and Tamoxifen on the Estradiol-stimulate
d Uterus Weight of Infantile Mice
(Mode of Administration: Subcutaneous - Number of Animals per Group:
Ru-16117, Tamoxifen and Estradiol are dissolved in a medium consisting of
benzylbenzoate/castor oil (1:10)

prostate hyperplasia [3] = assay: Prostate hyperplasia in younger dogs treated with estrogen or estrogen/androgen mixture, additional treatment with anti-androgen; format: in vivo, dog; conditions: additional cyproterone acetate
Text: Also in the dog, there is a proliferation primarily of the fibromuscular portion of the prostate. It is also possible to cause the aspects of the disease in younger dogs by treatment with an estrogen or an estrogen/androgen mixture.

prostate hyperplasia [4] = conditions: cited from earlier work
hyperplastic prostate = conditions: one-year study, patients; cited from earlier work
[5] = 3 μg/animal/day s.c. + 0.03 μg estradiol/animal/day, 3 days
[6] = 3 μg/animal/day s.c. + 0.03 μg estradiol/animal/day, 3 days, 8 animals per group
[7] = 30 μg/animal/day s.c. + 0.03 μg estradiol/animal/day, 3 days
[8] = 30 μg/animal/day s.c. + 0.03 μg estradiol/animal/day, 3 days, 8 animals per group

For C[C@]12CC[C@H]3[C@@H](CCC4=CC(=O)CC[C@@]43C=O)[C@@H]1CCC2=O [3,17-dioxoandrost-4-ene-19-al], which Estrogenous effect [1] is on record?
The Estrogenous effect was “strongly estrogenous effect”.

And the “Hornification of the vaginal epithelium” value [1]?
Its value is “Hornification of the vaginal epitelium took place”.

Which “Uterus Weight, Average Value ± Standard Deviation” value ([2]; single administration of 0.03 μg estradiol once daily over 3 days, s.c. (untreated control 11.8 ± 1.3)) does the source give for C[C@]12CC[C@@H]3c4ccc(O)cc4CC[C@H]3[C@@H]1CC[C@@H]2O [Estradiol] here?
Its value is 63.9 ± 6.2 mg.

For C#C[C@]1(O)CC[C@H]2[C@@H]3CCc4cc(O)ccc4[C@H]3[C@H](OC)C[C@@]21C [Ru-16117, 11α-methoxy-17α-ethynyl-1,3,5(10)-estratriene-3,17β-diol], which “% Inhibition, Decrease of Uterus Weight in Comparison to Single Estradiol Administration” value (“% Inhibition, Decrease of Uterus Weight” for short) ([2]; 0.3 μg/animal/day s.c. + 0.03 μg estradiol/animal/day, 3 days) is on record?
The value was 8%.

And the “Uterus Weight, Average Value ± Standard Deviation” value ([2]; 0.3 μg/animal/day s.c. + 0.03 μg estradiol/animal/day, 3 days, 8 animals per group)?
Its value is 60.0 ± 2.4 mg.

What about the “% Inhibition, Decrease of Uterus Weight” value [2, 5] of the same compound?
The value was 27%.

And the “Uterus Weight, Average Value ± Standard Deviation” value [2, 6]?
The value was 49.8 ± 1.6 mg.

What about the “% Inhibition, Decrease of Uterus Weight” value [2, 7] of the same compound?
Its value is 58%.

And the “Uterus Weight, Average Value ± Standard Deviation” value [2, 8]?
Its value is 34.3 ± 2.3 mg.

And the “Effectiveness compared with Tamoxifen” value ([2]; "somewhat more effective than Tamoxifen")?
Its value is “somewhat more”.

What about the “Effect on uterus weight of the estradiol-stimulated uterus of infantile mice, in words” value ([2]; 3 days) of the same compound?
The value was “pronounced dosagedependent decrease in uterus weight”.

For CC/C(=C(\c1ccccc1)c1ccc(OCCN(C)C)cc1)c1ccccc1 [Tamoxifen, (Z)-2-[p-(1,2-diphenyl-1-butenyl)-phenoxy]-N,N-dimethylethylamine], which “% Inhibition, Decrease of Uterus Weight” value [2, 5] is on record?
The value was 11%.

What about the “Uterus Weight, Average Value ± Standard Deviation” value [2, 6] of the same compound?
The value was 57.5 ± 2.1 mg.

What about the “% Inhibition, Decrease of Uterus Weight” value [2, 7] of the same compound?
The value was 40%.

What about the “Uterus Weight, Average Value ± Standard Deviation” value [2, 8] of the same compound?
The value was 43.3 ± 3.1 mg.

And the “% Inhibition, Decrease of Uterus Weight” value ([2]; 100 μg/animal/day s.c. + 0.03 μg estradiol/animal/day, 3 days)?
The value was 46%.

What about the “Uterus Weight, Average Value ± Standard Deviation” value ([2]; 100 μg/animal/day s.c. + 0.03 μg estradiol/animal/day, 3 days, 8 animals per group) of the same compound?
The value was 39.7 ± 3.1 mg.

And the “% Inhibition, Decrease of Uterus Weight” value ([2]; 300 μg/animal/day s.c. + 0.03 μg estradiol/animal/day, 3 days)?
Its value is 58%.

And the “Uterus Weight, Average Value ± Standard Deviation” value ([2]; 300 μg/animal/day s.c. + 0.03 μg estradiol/animal/day, 3 days, 8 animals per group)?
Its value is 34.1 ± 4.3 mg.

And the “Effect on uterus weight of the estradiol-stimulated uterus of infantile mice, in words” value ([2]; 3 days)?
The value was “pronounced dosagedependent decrease in uterus weight”.

Which “Effect on gland parenchyma” value (prostate hyperplasia [3]) does the source give for CC(=O)O[C@]1(C(C)=O)CC[C@H]2[C@@H]3C=C(Cl)C4=CC(=O)[C@@H]5C[C@@H]5[C@]4(C)[C@H]3CC[C@@]21C [cyproterone acetate, 6-chloro-17-hydroxy-1α,2α-methylenepregna-4,6-diene-3,20-dione acetate] here?
The value was “total atrophy of the gland parenchyma”.

And the “Effect on proliferation of the interstitium” value (prostate hyperplasia [3])?
The value was “proliferation of the interstitium is not affected”.

What does the source list for CCCCCC(=O)O[C@]1(C(C)=O)CC[C@H]2[C@@H]3CCC4=CC(=O)CC[C@@H]4[C@H]3CC[C@@]21C [gestonorone caproate]?
Maximum flow value (flow of urine per unit time) (prostate hyperplasia [4]; in vivo): improved; Reduction of the size of the adenoma (prostate hyperplasia [4]; in vivo): A marked reduction of the size of the adenoma, however, also cannot be achieved; Miction period (prostate hyperplasia [4]; prolonged prior to treatment): markedly shortened; Effect compared with phyto-preparations (prostate hyperplasia [4]; prostate hyperplasia): a better effect

For CC[C@H](CC[C@@H](C)[C@H]1CC[C@H]2[C@@H]3CC=C4C[C@@H](O)CC[C@]4(C)[C@H]3CC[C@]12C)C(C)C [β-sitosterol], which “Effectiveness in prostate hyperplasia” value (hyperplastic prostate) is on record?
Its value is “ineffective”.

From patent US4310523A, “Combined antiestrogens and antigonadotropically effective antiandrogens for the prophylaxis and therapy of hyperplasia of the prostate” (priority 1978, dated 1982)
